Source: patent US20030199516A1, “Methods of treating infection by drug resistant bacteria” (Genesoft, Inc., priority 2001, published 2003)
pKd: −log10 of the molar value.

Assays:
[1] = molecular target: target sequence AATTAATCAT (352 bp fragment, Plasmid C); assay: Quantitative DNase I footprint titration; format: binding; conditions: 352 bp C, 22° C., pH 7.0, read-out: Dissociation Constant Kd
Excerpt: (§1) Compounds (1) through (20) according to this invention were screened for their ability to bind to specified DNA target sequences, using DNase I footprinting. Generally, the procedure described in Dervan, WO 98/50582 (1998), was followed.
(§2) Three double stranded circular plasmids A, B, and C were used to prepare double stranded DNA-binding probes containing the target sequences for the DNase I footprint titration experiments. Plasmids A, B, and C had nucleotide sequences given by SEQ ID NO. I, SEQ ID NO. II, and SEQ ID NO. III, respectively.
(§3) The 3′-P32 end-labeled EcoRI/PvuII fragments from each plasmid were prepared by digesting the plasmids with EcoRI and PvuII with simultaneous fill-in using Sequenase v. 2.0, [alpha-P32]-deoxyadenosine-5′-triphosphate, and [alpha-P32]-thymidine-5′-triphosphate, and isolating the cloned fragments by nondenaturing gel electrophoresis. A and G sequencing reactions were carried out as described (See Maxam and Gilbert, Methods Enzymol., 1980, 65, 499-560; Iverson and Dervan, Methods Enzymol., 1987, 15, 7823-7830; Sambrook et al., 1989, Molecular Cloning, 2nd ed., Cold Spring Harbor Laboratory Press: Cold Spring Harbor, N.Y.) Standard methods were used for all DNA manipulations (Sambrook et al., ibid.) The cut sites for EcoRI and PvuII are indicated by bars in the respective maps of Plasmids A, B, and C in FIGS. 5, 6, and 7.
(§4) The 351 base pair dsDNA restriction fragment (SEQ ID NO. IV) of Plasmid A contained the target sequences AAAAAGCAAAAA, AAAAAGACAAAAA, and AAAAAGTACAAAAA. The 310 base pair dsDNA restriction fragment (SEQ ID NO. V) of Plasmid B contained the target sequences AGTACT, AATACT, and ATTACT. The 352 base pair dsDNA restriction fragment (SEQ ID NO. VI) of Plasmid C contained the target sequences TGACAATTAAT, GACAATTAATCA, AATTAATCAT, ACAATTA, and ACAATTAAT. These fragments were used for quantitative DNase I footprinting experiments. Compounds used in the method of this invention bind to at least one of the target sites with a equal to or less than 100 nM, preferably equal to or less than 50 nM, and more preferably equal to or less than 20 nM. The target sequences were selected for the identity with, or similarity to, promoter sites for bacterial genes.
(§5) Quantitative DNase I footprint titration experiments were carried out as described previously (Dervan, WO 98/50582, 1998) with the following changes. All reactions were carried out in a total volume of 400 μL, with compound stock solution or water added to 15,000 cpm radiolabeled restriction fragment affording final solution conditions of 10 mM Tris HCl, 10 mM KCl, 10 mM MgCl2, 5 mM CaCl2, pH 7.0 and 0.01 nM, 0.1 nM, 1.0 nM, 10.0 nM compound or no compound for reference lanes. The compounds were allowed to equilbrate at 22° C. for 16 h. Footprinting reactions were initiated with addition of 10 μL of a DNase I stock solution (at the appropriate concentration to give ˜50% intact DNA) containing 1 mM DTT and allowed to proceed for 7 min at 22° C. The reactions were stopped, ethanol precipitated, resuspended in loading buffer, heat denatured, and placed on ice as described previously (Dervan WO 98/50582, 1998). The reaction products were separated on a precast 8% polyacrylamide denaturing sequencing Castaway gel with 32 preformed wells from Stratagene in 1×TBE at 2000 V. Gels were dried according to the manufacturer and exposed to a storage phosphor screen (Molecular Dynamics). Quantitation and data analysis were carried out as described in Dervan, WO 98/50582, 1998.

[2] = test system: S. aureus ATCC 33591; assay: NCCLS broth microdilution MIC; format: cell-based, Staphylococcus aureus; conditions: Col. B = S. aureus ATCC 33591 (MRSA)
Excerpt: (§6) In vitro antibacterial activity data were collected for the following Gram-positive bacteria: Staphylococcus aureus (ATCC 27660, ATCC 33591 and ATCC 43300, all methicillin resistant strains (MRSA's)); Streptococcus pneumoniae (ATCC 51422, a penicillin resistant strain (PRSP)), Enterococcus faecium (ATCC 51559, and/or a vancomycin resistant strain (VRE)). Additionally, antifungal activity data were collected for Candida albicans (ATCC 38247). Minimal inhibition concentrations (MIC's) were determined using the National Committee for Clinical Laboratory Standards (NCCLS) broth microdilution assay in microtiter plates, as set forth in: (1) the guidelines of the National Committee for Clinical Laboratory Standards (NCCLS) Document M7-A4 (NCCLS, 1997); (2) the guidelines of the National Committee for Clinical Laboratory Standards (NCCLS) Document M11-A4 (NCCLS, 1997); and (3) the guidelines and reference method of the National Committee for Clinical Laboratory Standards (NCCLS) Document M27-T (NCCLS, 1995). For antifungal essays, the method recommended in Murray, PR., 1995 Manual of Clinical Microbiology (ASM Press, Washington, D.C.), was employed.

[3] = test system: S. aureus ATCC 43300; assay: NCCLS broth microdilution MIC; format: cell-based, Staphylococcus aureus; conditions: Col. C = S. aureus ATCC 43300 (MRSA)
Excerpt: as §6

[4] = test system: methicillin resistant Staphylococcus aureus ATCC 33591; assay: Mouse protection assay; format: in vivo; conditions: balb/c mice, 50 mg/kg intravenously at 2, 8, 18 and 24 hours post infection; vehicle 14
Protocol: (§7) A S. aureus ATCC 33591 culture was grown to log phase overnight and diluted in phosphate buffered saline (pH 7.2) to an optical density of about 0.1 at 600 nm, giving an approximate concentration of 10^8 cfu/mL. Porcine mucin was added to the suspension to a final concentration of 5% mucin. The suspension was diluted 1:100 for a final concentration of 10^6 cfu/mL.
Female balb/c mice (20 g body weight) were injected intraperitoneally with 0.5 mL of bactenal suspension (10^6 cfu/mL). Vehicle (phosphate buffered saline, pH 7.2) or test compound were administered intravenously at 2, 8, 18, and 24 hours post infection. The animals were monitored twice daily and survival counts were recorded up to 48 hours post infection.

[5] = test system: Candida albicans ATCC 38247; assay: Antifungal MIC; format: cell-based; conditions: Col. F = C. albicans ATCC 38247
Excerpt: as §6

[6] = test system: Enterococcus faecium ATCC 51559; assay: NCCLS broth microdilution MIC; format: cell-based; conditions: Col. D = E. faecium ATCC 51559 (VRE)
Excerpt: as §6

[7] = test system: S. aureus ATCC 27660; assay: NCCLS broth microdilution MIC; format: cell-based, Staphylococcus aureus; conditions: Col. A = S. aureus ATCC 27660 (MRSA)
Excerpt: as §6

[8] = test system: Streptococcus pneumoniae ATCC 51422; assay: NCCLS broth microdilution MIC; format: cell-based; conditions: Col. E = S. pneumoniae ATCC 51422 (PRSP)
Excerpt: as §6

[9] = molecular target: target sequence GACAATTAATCA (352 bp fragment, Plasmid C); assay: Quantitative DNase I footprint titration; format: binding; conditions: 352 bp C, 22° C., pH 7.0, read-out: Dissociation Constant Kd
Excerpt: as §1, §2, §3, §4, §5

[10] = test system: methicillin resistant Staphylococcus aureus ATCC 33591; assay: Murine neutropenic thigh model; format: in vivo; conditions: neutropenic CF1 mice
Protocol: as §7, with “cfu/mL.” for “cfu/mL. Porcine mucin was added to the suspension to a final concentration of 5% mucin.”, “1:100 in phosphate buffered saline (pH 7.2)” for “1:100”
Outbred female CFI mice (approx. 20 gram body weight) were rendered netutropenic by treatment with cyclophosphamide (200 mg/kg body weight, intraperitoneal injection) at 2 and 4 days prior to inoculation. Groups of 5 mice were inoculated with 0.05 mL of the bacteria (approx. 10^6 cfu/mL) into the anterior thigh. Each group was treated intravenously two hours post infection with vehicle (phosphate buffered saline) or test compound. The mice were sacrificed at either 6 or 24 hrs after treatment and thighs were collected aseptically. Each thigh was weighed, placed into sterile saline, and homogenized. The tissue homogenates were diluted appropriately for plating on agar plates. Colony counts were recorded (cfu/gram) and compared to control groups.

[11] = molecular target: target sequence AATACT (310 bp fragment, Plasmid B); assay: Quantitative DNase I footprint titration; format: binding; conditions: 310 bp B, 22° C., pH 7.0, read-out: Dissociation Constant Kd
Excerpt: as §1, §2, §3, §4, §5

[12] = molecular target: target sequence ACAATTAAT (352 bp fragment, Plasmid C); assay: Quantitative DNase I footprint titration; format: binding; conditions: 352 bp C, 22° C., pH 7.0, read-out: Dissociation Constant Kd
Excerpt: as §1, §2, §3, §4, §5

[13] = molecular target: target sequence AGTACT (310 bp fragment, Plasmid B); assay: Quantitative DNase I footprint titration; format: binding; conditions: 310 bp B, 22° C., pH 7.0, read-out: Dissociation Constant Kd
Excerpt: as §1, §2, §3, §4, §5

Row | SMILES | pKd [1] | Minimum Inhibitory Concentration (MIC) [2] | Minimum Inhibitory Concentration (MIC) [3] | Survival at 48 hrs [4] | Minimum Inhibitory Concentration (MIC) [5] | Minimum Inhibitory Concentration (MIC) [6] | Minimum Inhibitory Concentration (MIC) [7] | Minimum Inhibitory Concentration (MIC) [8] | pKd [9] | Colony Count ([10]; 80 mg/kg intravenously 2 h post infection, 6 hr after treatment, vehicle 7.83) | pKd [11] | Colony Count ([10]; 50 mg/kg intravenously 2 h post infection, 24 hr after treatment, vehicle 8.03) | pKd [12] | pKd [13] | MIC ([7]; Staphylococcus aureus, read-out: Minimum Inhibitory Concentration (MIC)) | MIC ([5]; Candida albicans, ATCC38247, read-out: Minimum Inhibitory Concentration (MIC))
1 | Cn1cc(NC(=O)c2cc(NC(=O)c3cc(NC(=O)c4sccc4Cl)cn3C)cn2C)cc1C(=O)NCCN1CCOCC1 [Compound 6] | 7.70 | + (+ = MIC ≦ 2) | − (− = MIC > 2) | 86% | >32 µg/mL | ++ (++ = MIC ≦ 1) | – | – | – | – | – | – | – | – | – | –
2 | Cn1cc(NC(=O)c2cc(NC(=O)c3cc(NC(=O)c4sc5ccccc5c4Cl)cn3C)cn2C)cc1C(=O)NCCN1CCOCC1 [Compound 8] | 9.70 | ++ (++ = MIC ≦ 1) | ++ (++ = MIC ≦ 1) | – | >32 µg/mL | ++ (++ = MIC ≦ 1) | ++ (++ = MIC ≦ 1) | ++ (++ = MIC ≦ 1) | – | – | – | – | – | – | – | –
3 | Cn1cc(NC(=O)c2cc(NC(=O)c3cc(NC(=O)c4sc5ccccc5c4Cl)c[nH]3)cn2C)cc1C(=O)NCCN1CCOCC1 [Compound 9] | – | ++ (++ = MIC ≦ 1) | + (+ = MIC ≦ 2) | – | >32 µg/mL | + (+ = MIC ≦ 2) | ++ (++ = MIC ≦ 1) | ++ (++ = MIC ≦ 1) | 10.00 | 6.17 log cfu/gram | – | – | – | – | – | –
4 | Cn1cc(NC(=O)c2cc(NC(=O)c3cc(NC(=O)c4ccc(Cl)cc4F)c[nH]3)cn2C)cc1C(=O)NCCN1CCOCC1 [Compound 10] | 9.00 | − (− = MIC > 2) | – | – | 8 to 32 µg/mL | + (+ = MIC ≦ 2) | + (+ = MIC ≦ 2) | − (− = MIC > 2) | – | – | 8.30 | – | – | – | – | –
5 | Cn1cc(NC(=O)c2sccc2Cl)cc1C(=O)Nc1cc(-c2nc3ccc(C(=O)NCCN4CCOCC4)cc3[nH]2)n(C)c1 [Compound 12] | – | − (− = MIC > 2) | – | – | >32 µg/mL | ++ (++ = MIC ≦ 1) | ++ (++ = MIC ≦ 1) | ++ (++ = MIC ≦ 1) | ≥ 10.00 | – | – | 6.96 log cfu/gram | – | – | – | –
6 | Cn1cc(NC(=O)c2cc(NC(=O)c3cc(NC(=O)c4cc5ccccc5cn4)cn3C)cn2C)cc1C(=O)NCCc1cccnc1 [Compound 14] | – | − (− = MIC > 2) | – | – | >32 µg/mL | − (− = MIC > 2) | ++ (++ = MIC ≦ 1) | + (+ = MIC ≦ 2) | – | – | – | – | 8.30 | – | – | –
7 | Cn1cc(NC(=O)c2cc3ccccc3cn2)cc1C(=O)Nc1cc(C(=O)Nc2cc(C(=O)NCCN3CCOCC3)n(CCN3CCOCC3)c2)n(C)c1 [Compound 17] | 8.30 | − (− = MIC > 2) | – | – | >32 µg/mL | ++ (++ = MIC ≦ 1) | ++ (++ = MIC ≦ 1) | ++ (++ = MIC ≦ 1) | – | – | – | – | – | > 7.00 | – | –
8 | Cn1cc(NC(=O)c2cc3ccccc3cn2)cc1C(=O)Nc1cc(C(=O)Nc2cc(C(=O)NCCN3CCCCC3)ns2)n(C)c1 [Compound 19] | – | + (+ = MIC ≦ 2) | – | – | >32 µg/mL | ++ (++ = MIC ≦ 1) | ++ (++ = MIC ≦ 1) | ++ (++ = MIC ≦ 1) | – | – | – | – | 9.00 | – | – | –
9 | Cn1cc(NC(=O)c2cc(NC(=O)c3cc(NC(=O)c4cc5ccccc5cn4)no3)cn2C)cc1C(=O)NCCN1CCOCC1 [Compound 20] | 8.30 | – | – | – | – | – | – | – | – | – | – | – | – | 8.00 | ≤ 1 µg/mL | > 32 µg/mL
